Reference: PubChem BioAssay AID2060892 (Molecular Pharmacology Branch, DTP, NCI, 2025)
pIC50: −log10 of the molar value.

System: HOP-62 complex spheroids with HUVEC/MSC, viability
Assay: Anticancer human tumor HOP-62 cell line growth inhibition [RAS];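 note: spheroids exposed to agents for seven days before readout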;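 for viability, T/C: 100% = DMSO vehicle control viability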
Details: for pIC50: curve of first compound; for viability, T/C: stronger effect = lower value
Procedure, shortened: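 Tumour cells grown as complex spheroids with HUVEC endothelial cells and mesenchymal stem cells, treated with RAS pathway inhibitor combinations. Each agent spans half-log steps from near clinical Cmax, or 10 microM where Cmax is unknown.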

[1] = second compound 0.000949 µM, first compound 0.00316 µM
[2] = second compound 0.000949 µM, first compound 0.01 µM
[3] = second compound 0.000949 µM, first compound 0.0316 µM
[4] = second compound 0.000949 µM, first compound 0.1 µM
[5] = second compound 0.000949 µM, first compound 0.316 µM
[6] = second compound 0.000949 µM, first compound 1 µM
[7] = second compound 0.003 µM, first compound 0.00316 µM
[8] = second compound 0.003 µM, first compound 0.01 µM
[9] = second compound 0.003 µM, first compound 0.0316 µM
[10] = second compound 0.003 µM, first compound 0.1 µM
[11] = second compound 0.003 µM, first compound 0.316 µM
[12] = second compound 0.003 µM, first compound 1 µM
[13] = second compound 0.00949 µM, first compound 0.00316 µM
[14] = second compound 0.00949 µM, first compound 0.01 µM
[15] = second compound 0.00949 µM, first compound 0.0316 µM
[16] = second compound 0.00949 µM, first compound 0.1 µM
[17] = second compound 0.00949 µM, first compound 0.316 µM
[18] = second compound 0.00949 µM, first compound 1 µM
[19] = second compound 0.03 µM, first compound 0.00316 µM
[20] = second compound 0.03 µM, first compound 0.01 µM
[21] = second compound 0.03 µM, first compound 0.0316 µM
[22] = second compound 0.03 µM, first compound 0.1 µM
[23] = second compound 0.03 µM, first compound 0.316 µM
[24] = second compound 0.03 µM, first compound 1 µM
[25] = second compound 0.0949 µM, first compound 0.00316 µM
[26] = second compound 0.0949 µM, first compound 0.01 µM
[27] = second compound 0.0949 µM, first compound 0.0316 µM
[28] = second compound 0.0949 µM, first compound 0.1 µM
[29] = second compound 0.0949 µM, first compound 0.316 µM
[30] = second compound 0.0949 µM, first compound 1 µM
[31] = second compound 0.3 µM, first compound 0.00316 µM
[32] = second compound 0.3 µM, first compound 0.01 µM
[33] = second compound 0.3 µM, first compound 0.0316 µM
[34] = second compound 0.3 µM, first compound 0.1 µM
[35] = second compound 0.3 µM, first compound 0.316 µM
[36] = second compound 0.3 µM, first compound 1 µM

## Nc1ccn(C2OC(CO)C(O)C2(F)F)c(=O)n1 (centres undefined) + CCn1c(-c2cccnc2C(C)OC)c2c3cc(ccc31)N1CCOC(CC(NC(=O)C(C(C)C)N(C)C(=O)C3(F)CCN(C(=O)C#CC(C)(C)N(C)C)CC3)C(=O)N3CCCC(N3)C(=O)OCC(C)(C)C2)C1
Second compound 0.000949 µM
  pIC50: 7.85
Second compound 0.003 µM
  pIC50: 8.04
Second compound 0.00949 µM
  pIC50: 8.09
Second compound 0.03 µM
  pIC50: 7.97
Second compound 0.0949 µM
  pIC50: 8.02
Second compound 0.3 µM
  pIC50: 8.06
[1]
  viability, T/C: 111%
[2]
  viability, T/C: 66.9%
[3]
  viability, T/C: 9.65%
[4]
  viability, T/C: 7.4%
[5]
  viability, T/C: 7.76%
[6]
  viability, T/C: 5.24%
[7]
  viability, T/C: 104%
[8]
  viability, T/C: 45.6%
[9]
  viability, T/C: 18.4%
[10]
  viability, T/C: 7.14%
[11]
  viability, T/C: 8.39%
[12]
  viability, T/C: 5.94%
[13]
  viability, T/C: 87.8%
[14]
  viability, T/C: 41%
[15]
  viability, T/C: 22.8%
[16]
  viability, T/C: 10.3%
[17]
  viability, T/C: 10.9%
[18]
  viability, T/C: 5.88%
[19]
  viability, T/C: 90%
[20]
  viability, T/C: 51.2%
[21]
  viability, T/C: 22.7%
[22]
  viability, T/C: 8.44%
[23]
  viability, T/C: 4.99%
[24]
  viability, T/C: 7.65%
[25]
  viability, T/C: 83.9%
[26]
  viability, T/C: 48.5%
[27]
  viability, T/C: 21.7%
[28]
  viability, T/C: 8.95%
[29]
  viability, T/C: 5.53%
[30]
  viability, T/C: 6.69%
[31]
  viability, T/C: 77.8%
[32]
  viability, T/C: 45.9%
[33]
  viability, T/C: 22.9%
[34]
  viability, T/C: 8.24%
[35]
  viability, T/C: 8.97%
[36]
  viability, T/C: 8.38%

## CC(C)NCC(C(=O)N1CCN(c2ncnc3c2C(C)CC3O)CC1)c1ccc(Cl)cc1 (centres undefined) + C=CC(=O)N1CCN(c2nc(OCC3CCCN3C)nc3c(F)c(-c4nc(N)cc(C)c4C(F)(F)F)c(Cl)cc23)C(C)C1
Second compound 0.00316 µM
  pIC50: 5.98
Second compound 0.01 µM
  pIC50: 6.15
Second compound 0.0316 µM
  pIC50: 6.33
Second compound 0.1 µM
  pIC50: 6.35
Second compound 0.316 µM
  pIC50: 6.26
Second compound 1 µM
  pIC50: 6.52
Second compound 0.00316 µM, first compound 0.0316 µM
  viability, T/C: 84.3%
Second compound 0.00316 µM, first compound 0.1 µM
  viability, T/C: 78.1%
Second compound 0.00316 µM, first compound 0.316 µM
  viability, T/C: 63.4%
Second compound 0.00316 µM, first compound 1 µM
  viability, T/C: 53.4%
Second compound 0.00316 µM, first compound 3.16 µM
  viability, T/C: 31%
Second compound 0.00316 µM, first compound 10 µM
  viability, T/C: 12.8%
Second compound 0.01 µM, first compound 0.0316 µM
  viability, T/C: 71.7%
Second compound 0.01 µM, first compound 0.1 µM
  viability, T/C: 67.5%
Second compound 0.01 µM, first compound 0.316 µM
  viability, T/C: 60.2%
Second compound 0.01 µM, first compound 1 µM
  viability, T/C: 46.3%
Second compound 0.01 µM, first compound 3.16 µM
  viability, T/C: 27.1%
Second compound 0.01 µM, first compound 10 µM
  viability, T/C: 15.3%
Second compound 0.0316 µM, first compound 0.0316 µM
  viability, T/C: 74.9%
Second compound 0.0316 µM, first compound 0.1 µM
  viability, T/C: 60.5%
Second compound 0.0316 µM, first compound 0.316 µM
  viability, T/C: 53.7%
Second compound 0.0316 µM, first compound 1 µM
  viability, T/C: 39.2%
Second compound 0.0316 µM, first compound 3.16 µM
  viability, T/C: 39%
Second compound 0.0316 µM, first compound 10 µM
  viability, T/C: 12%
Second compound 0.1 µM, first compound 0.0316 µM
  viability, T/C: 70%
Second compound 0.1 µM, first compound 0.1 µM
  viability, T/C: 57.8%
Second compound 0.1 µM, first compound 0.316 µM
  viability, T/C: 60.7%
Second compound 0.1 µM, first compound 1 µM
  viability, T/C: 34.6%
Second compound 0.1 µM, first compound 3.16 µM
  viability, T/C: 25.4%
Second compound 0.1 µM, first compound 10 µM
  viability, T/C: 13.6%
Second compound 0.316 µM, first compound 0.0316 µM
  viability, T/C: 61.7%
Second compound 0.316 µM, first compound 0.1 µM
  viability, T/C: 81.3%
Second compound 0.316 µM, first compound 0.316 µM
  viability, T/C: 55.5%
Second compound 0.316 µM, first compound 1 µM
  viability, T/C: 39.4%
Second compound 0.316 µM, first compound 3.16 µM
  viability, T/C: 23.5%
Second compound 0.316 µM, first compound 10 µM
  viability, T/C: 12.6%
Second compound 1 µM, first compound 0.0316 µM
  viability, T/C: 69.8%
Second compound 1 µM, first compound 0.1 µM
  viability, T/C: 57.1%
Second compound 1 µM, first compound 0.316 µM
  viability, T/C: 50.2%
Second compound 1 µM, first compound 1 µM
  viability, T/C: 39.4%
Second compound 1 µM, first compound 3.16 µM
  viability, T/C: 23.9%
Second compound 1 µM, first compound 10 µM
  viability, T/C: 11.4%

## C=CC(=O)Nc1cc(Nc2nccc(-c3cn(C)c4ccccc34)n2)c(OC)cc1N(C)CCN(C)C + CCn1c(-c2cc(N3CCN(C)CC3)cnc2C(C)OC)c2c3cc(ccc31)-c1csc(n1)CC(NC(=O)C1CC1C)C(=O)N1CCCC(N1)C(=O)OCC(C)(C)C2
Second compound 0.000949 µM
  pIC50: < 6.00
Second compound 0.003 µM
  pIC50: 6.16
Second compound 0.00949 µM
  pIC50: 6.56
Second compound 0.03 µM
  pIC50: 8.20
Second compound 0.0949 µM
  pIC50: > 8.50
Second compound 0.3 µM
  pIC50: > 8.50
[1]
  viability, T/C: 119%
[2]
  viability, T/C: 114%
[3]
  viability, T/C: 85.8%
[4]
  viability, T/C: 120%
[5]
  viability, T/C: 106%
[6]
  viability, T/C: 66.4%
[7]
  viability, T/C: 97.4%
[8]
  viability, T/C: 88.6%
[9]
  viability, T/C: 74.4%
[10]
  viability, T/C: 89.5%
[11]
  viability, T/C: 75.9%
[12]
  viability, T/C: 37.4%
[13]
  viability, T/C: 76.6%
[14]
  viability, T/C: 62.5%
[15]
  viability, T/C: 59.7%
[16]
  viability, T/C: 66.5%
[17]
  viability, T/C: 47.3%
[18]
  viability, T/C: 33.2%
[19]
  viability, T/C: 52%
[20]
  viability, T/C: 49.2%
[21]
  viability, T/C: 42.7%
[22]
  viability, T/C: 43.3%
[23]
  viability, T/C: 26.6%
[24]
  viability, T/C: 30.1%
[25]
  viability, T/C: 40.2%
[26]
  viability, T/C: 44.1%
[27]
  viability, T/C: 33.8%
[28]
  viability, T/C: 32.1%
[29]
  viability, T/C: 26.4%
[30]
  viability, T/C: 24%
[31]
  viability, T/C: 42.1%
[32]
  viability, T/C: 35.6%
[33]
  viability, T/C: 37.4%
[34]
  viability, T/C: 33.7%
[35]
  viability, T/C: 22.9%
[36]
  viability, T/C: 22.7%

## CCc1c2c(nc3ccc(O)cc13)-c1cc3c(c(=O)n1C2)COC(=O)[C@]3(O)CC
Compound 0.003 µM
  viability, T/C: 22.4% [middle of 4 runs]
Compound 0.00949 µM
  viability, T/C: 10.6% [middle of 4 runs]
Compound 0.03 µM
  viability, T/C: 7.82% [middle of 4 runs]
Compound 0.0949 µM
  viability, T/C: 5.87% [middle of 4 runs]
Compound 0.3 µM
  viability, T/C: 3.8% [middle of 4 runs]
Curve of compound
  IC50: 1.34 nM [middle of 4 runs]

## O=C(c1ccc(F)c(F)c1Nc1ccc(I)cc1F)N1CC(O)([C@@H]2CCCCN2)C1 + CCn1c(-c2cccnc2C(C)OC)c2c3cc(ccc31)N1CCOC(CC(NC(=O)C(C(C)C)N(C)C(=O)C3(F)CCN(C(=O)C#CC(C)(C)N(C)C)CC3)C(=O)N3CCCC(N3)C(=O)OCC(C)(C)C2)C1
Second compound 0.000949 µM
  pIC50: 6.42
Second compound 0.003 µM
  pIC50: 6.06
Second compound 0.00949 µM
  pIC50: 6.78
Second compound 0.03 µM
  pIC50: 6.87
Second compound 0.0949 µM
  pIC50: 6.94
Second compound 0.3 µM
  pIC50: 7.15
[1]
  viability, T/C: 107%
[2]
  viability, T/C: 123%
[3]
  viability, T/C: 82%
[4]
  viability, T/C: 87.2%
[5]
  viability, T/C: 52.4%
[6]
  viability, T/C: 25.6%
[7]
  viability, T/C: 106%
[8]
  viability, T/C: 93.9%
[9]
  viability, T/C: 90.3%
[10]
  viability, T/C: 110%
[11]
  viability, T/C: 74.9%
[12]
  viability, T/C: 46.9%
[13]
  viability, T/C: 85.6%
[14]
  viability, T/C: 75.6%
[15]
  viability, T/C: 78.3%
[16]
  viability, T/C: 60.6%
[17]
  viability, T/C: 36.7%
[18]
  viability, T/C: 30.9%
[19]
  viability, T/C: 88.8%
[20]
  viability, T/C: 85.8%
[21]
  viability, T/C: 71.8%
[22]
  viability, T/C: 60.9%
[23]
  viability, T/C: 28.4%
[24]
  viability, T/C: 32.6%
[25]
  viability, T/C: 87.6%
[26]
  viability, T/C: 78.2%
[27]
  viability, T/C: 72.2%
[28]
  viability, T/C: 55.8%
[29]
  viability, T/C: 27.1%
[30]
  viability, T/C: 26.6%
[31]
  viability, T/C: 82.9%
[32]
  viability, T/C: 70%
[33]
  viability, T/C: 67.3%
[34]
  viability, T/C: 42.4%
[35]
  viability, T/C: 31.4%
[36]
  viability, T/C: 26.1%
